Experimental data as given in patent US12115178B2, “Acylated active agents and methods of their use for the treatment of autoimmune disorders” (Flagship Pioneering Innovations V, Inc., priority 2018, dated 2024).

Assays:
[1] = test system: AhR; assay: AhR activation in Caco-2 cells through CYP1A1 mRNA expression; conditions: overnight
Description: Caco-2 cells from American Type Culture Collection (ATCC) were plated in a sterile tissue culture treated 96-well plate (ThermoFisher) at […], and grown overnight at 37° C., 5% CO2 in DMEM complete (Gibco) in order to achieve confluence. After the incubation medium was aspirated off of the Caco-2 monolayers, tissues were then washed with 200 μL of warmed PBS solution, and subsequently 190 μL of pre-warmed growth medium was added to each well. Compounds of interest were diluted at a 20× concentration in growth medium containing 2% DMSO, and 10 μL of compound solutions were added to respective wells in triplicate. Compounds where incubated overnight at 37° C., 5% CO2. 2-(1′H-indole-3′-carbonyl)-thiazole-4-carboxylic acid methyl ester (ITE) was used as the positive control for AhR activation at 1 and 100 μM concentrations. At the end of the incubation, medium was aspirated off of the Caco-2 cells, and the cells washed with 100 μL of cold PBS solution. RNA was extracted via the TaqMan™ Gene Expression Cells-to-CT™ Kit (ThermoFisher) according to the manufacturers protocol. The QuantStudio 6 Flex (Applied Biosciences) was used to analyze mRNA levels of CYP1A1 using GAPDH as the endogenous control. TaqMan™ probe sets for both genes were acquired from ThermoFisher. Samples were run in triplicate and data was analyzed using the QuantStudio software and reported as linear (Table 1) and log 2(ΔΔCT) values. Statistical analysis was performed using a two-tailed t-test comparing CYP1A1 levels in the presence of each individual compound to the vehicle negative control.

[2] = test system: Primary Human Peripheral Blood Mononuclear Cells (PBMCs); assay: Inflammatory signals in LPS-treated primary human PBMCs; format: cell-based; conditions: 100 uM, 24 hours
Description: Human donor blood (8 mL) was collected in sodium citrate CPT tubes and centrifuged at 1,600×g for 20 minutes at room temperature. Buffy coat containing PBMCs was collected and transferred to a 50 mL conical tube containing 30 mL of RPMI-1640 medium at room temperature (supplemented with penicillin-streptomycin). PBMCs samples were centrifuged at 400×g for 10 minutes at 10° C. The pelleted PBMCs were washed twice in 10 ml of RPMI-1640 medium (supplemented with penicillin-streptomycin), then resuspended in RPMI-1640 medium (supplemented with penicillin-streptomycin, fetal bovine serum, and L-Glutamine). PBMCs were filtered through a 70 micron mesh to remove any cellular debris. […] PBMCs in a 96-well plate were rested for 30 minutes in a 37° C., 5% CO2 incubator, then subsequently treated with 10 μl of indicated compound. After 2 hours 10 μL of LPS (O111:B4) 1 mg/mL was added to test wells. After 24 hours of incubation at 37° C., 5% CO2, 100 μL of cell supernatant was collected and transferred to a 96-well plate (non-tissue treated, flat bottom). The plate was centrifuged at 350×g for 5 minutes at room temperature, and then the clear supernatant transferred to a new 96-well plate (non-tissue treated, flat bottom). The remaining cells were tested for viability using CellTiter-Glo® Luminescent Cell Viability Assay (Promega). The supernatant was analyzed for TNFα, IL-6 and […] Systems), using Luminex Immunoassay Technology (MAGPIX System). Cytokine levels of LPS treated DMSO control samples were set to 100%, and compound treated samples were expressed relative to this (Table 3).

[3] = test system: neutrophil; assay: Neutrophil chemokine production assay; format: cell-based, human; conditions: 12 h
Description: A volume 25 mL of human blood was layered over 15 mL of Histopaque®-1077 and centrifuged at 500 g, RT, for 30 min with no break applied to the centrifuge. The PBMC band and Histopaque®-1077 layer were removed leaving behind the bottom red layer which was mixed with 40 mL of 1× red blood cell (RBC) lysis buffer (Sigma-Aldrich) was and split into two 50 mL tubes. The volume for both fractions was brought to 50 mL with RBC lysis buffer, mixed by inversion, and then incubated at RT for 10 min. Solutions were centrifuged at 250 g, for 10 min at RT and the supernatant liquids removed. The reddish pellets were re-suspended in 1 mL of RBC lysis buffer and combined. The cell suspension was incubated for 5 min at RT in RBC lysis buffer. After incubation 45 mL of Hanks Balanced Salt Solution with no calcium, magnesium or phenol red (HBSS−) was added, the cell suspension was spun (250 g for 10 min at RT), and supernatant liquids were removed. The white pellet was re-suspended in 1 mL of HBSS−, and cell counts were determined. The neutrophil cell suspension was brought to a concentration of 1.11e6 cells/mL in RPMI complete (Sigma-Aldrich), and 180 μL of cell suspension was transferred to all wells within a sterile 96-well tissue culture treated plate resulting in 2.0e5 cells/well. […] After incubation, 10 μL of 2 μg/mL LPS solution in RPMI complete was added to each well except for control wells, which received an additional 10 μL of media. Cells were incubated for 12 h (37° C., 5% CO2), after which plates were centrifuged at 250 g, RT, for 5 min and supernatant liquids were obtained and stored at −80° C. until analyzed via Luminex® Multiplex Assay for various chemokines and cytokines. Three data points were acquired from two different blood donors and averaged.

[4] = test system: naïve CD4+ T cells; assay: Human regulatory T cell differentiation assay; format: cell-based; conditions: 6 days
Description: Peripheral blood mononuclear cells (PBMCs) from whole blood donated by health volunteers were separated by Ficoll-Paque gradient centrifugation and naïve CD4^+ T cells were subsequently isolated using magnet beads (EasySep™ Human Naïve CD4^+ T Cell Isolation Kit, Cambridge, MA). For regulatory T cell (Treg) differentiation assay, naïve CD4^+ T cells were cultured (1-10×10^4 cells) in CTS OpTmizer medium for 6 days and stimulated with 5 ng/ml TGF-β, 100 U/ml IL-2, and ImmunoCult™ Human […] T Cell Activator; Stemcell #10990) with/without our Compounds. Cell viability was determined using a viability dye (eBioscience Fixable Viability Dye eFluor 780: ThermoFisher 65-0865-14) at 1:500 dilution. The cells were gated for Treg, defined as Live, CD11c^−, CD14^−, CD19^−, CD8^−, CD4^+, CD3^+, CD25^+, FOXP3^+. Percent (%) Tregs were calculated as percentage of CD4^+, CD25^+, FOXP3^+ cells over total CD4 T cells. Statistical analysis was performed with GraphPad Prism Software Using One-Way ANOVA.

[5] = test system: Caco-2 colonocytes; assay: Human Caco-2 barrier integrity assay (TEER); format: cell-based; conditions: 48 hours
Description: At 70-80% confluency, cells were trypsinized and seeded in 0.4 cm^2 transwell collagen I coated membranes with supplemented DMEM in both apical and basolateral compartments. Cells were seeded at a density of 200,000 cells per well and maintained for 10 days to form a polarized barrier with a TransEpithelial […] After 48 hours, TEER readings were taken again and viability was measured by CellTiter 96® AQueous One Solution Cell Proliferation Assay (Promega). The percent change in TEER over the 48 hours was determined and normalized to the 0.1% DMSO control (Table 6).

Compound | Average CYP1A1 mRNA levels ([1]; 10.0 μM) | Average CYP1A1 mRNA levels ([1]; 100.0 μM) | IL1β % DMSO control [2] | IL6 % DMSO control [2] | TNFα % of DMSO control [2] | % IL-8 (Vehicle + LPS = 100%) ([3]; 500.0 μM) | % MIP-1α (Vehicle + LPS = 100%) ([3]; 500.0 μM) | % MIP-1β (DMSO + LPS = 100%) ([3]; 500.0 μM) | % IL-8 (Vehicle + LPS = 100%) ([3]; 1000.0 μM) | % MIP-1α (Vehicle + LPS = 100%) ([3]; 1000.0 μM) | % MIP-1β (DMSO + LPS = 100%) ([3]; 1000.0 μM) | also measured
Cn1cc(C[C@H](N)C(=O)O)c2ccccc21 [1-methylindole-3-alanine] | + (+ = >2-fold Vehicle) | +++ (+++ = >10-fold Vehicle) | – | – | – | – | – | – | – | – | – | –
O=C(O)c1ccccc1 [Benzoic acid] | + (+ = >2-fold Vehicle) | + (+ = >2-fold Vehicle) | – | – | – | – | – | – | – | – | – | –
COC(=O)c1csc(C(=O)c2c[nH]c3ccccc23)n1 [ITE, 2-(1′H-indole-3′-carbonyl)-thiazole-4-carboxylic acid methyl ester] | – | – | – | – | – | – | – | – | – | – | – | Average CYP1A1 mRNA levels ([1]; 1.0 μM): +++ (+++ = >10-fold Vehicle)
O=C[C@H](O)[C@@H](O)[C@@H](O)CO [L-arabinose] | – | – | = ((=) 90%> <110% DMSO) | + ((+) 50%> <90% DMSO) | + ((+) 50%> <90% DMSO) | − (− = >90% Vehicle) | − (− = >90% Vehicle) | − (− = >90% Vehicle) | − (− = >90% Vehicle) | − (− = >90% Vehicle) | − (− = >90% Vehicle) | Cell viability % DMSO ([4]; 0.5 mM): = (90%> <110%: =); Cell viability % DMSO ([4]; 1 mM): = (90%> <110%: =)
CC(=O)O [acetate] | – | – | = ((=) 90%> <110% DMSO) | = ((=) 90%> <110% DMSO) | = ((=) 90%> <110% DMSO) | − (− = >90% Vehicle) | + (+ = <90% Vehicle) | + (+ = <90% Vehicle) | − (− = >90% Vehicle) | ++ (++ = <70%Vehicle) | + (+ = <90% Vehicle) | % IL-8 (Vehicle + LPS = 100%) ([3]; 3000.0 μM): +++ (+++ = <50% Vehicle); % MIP-1α (Vehicle + LPS = 100%) ([3]; 3000.0 μM): +++ (+++ = <50% Vehicle); % MIP-1β (DMSO + LPS = 100%) ([3]; 3000.0 μM): +++ (+++ = <50% Vehicle); % Change in TEER from DMSO ([5]; 1 mM + cytokines): − (<125%: −); % Change in TEER from DMSO ([5]; 3 mM + cytokines): − (<125%: −)
